In patent publication US20260356804A1, “SODIUM CHANNEL BLOCKING COMPOUNDS, DERIVATIVES THEREOF, AND METHODS OF THEIR USE” (LATIGO BIOTHERAPEUTICS, INC., priority 2022, published 2026) one finds IC50 data, which are given here for 25 compounds.

By pIC50 is commonly meant the negative decadic logarithm of the IC50, by convention in mol/L.

pIC50: −log10 of the molar value.

For the experiment, the target named is T1, human Nav1.8/b3 (Homo sapiens, UniProt Q9Y5Y9).
T1 construct: expressed in transfected cells; host or cells: CHO
T1 sequence (Q9Y5Y9 whole entry): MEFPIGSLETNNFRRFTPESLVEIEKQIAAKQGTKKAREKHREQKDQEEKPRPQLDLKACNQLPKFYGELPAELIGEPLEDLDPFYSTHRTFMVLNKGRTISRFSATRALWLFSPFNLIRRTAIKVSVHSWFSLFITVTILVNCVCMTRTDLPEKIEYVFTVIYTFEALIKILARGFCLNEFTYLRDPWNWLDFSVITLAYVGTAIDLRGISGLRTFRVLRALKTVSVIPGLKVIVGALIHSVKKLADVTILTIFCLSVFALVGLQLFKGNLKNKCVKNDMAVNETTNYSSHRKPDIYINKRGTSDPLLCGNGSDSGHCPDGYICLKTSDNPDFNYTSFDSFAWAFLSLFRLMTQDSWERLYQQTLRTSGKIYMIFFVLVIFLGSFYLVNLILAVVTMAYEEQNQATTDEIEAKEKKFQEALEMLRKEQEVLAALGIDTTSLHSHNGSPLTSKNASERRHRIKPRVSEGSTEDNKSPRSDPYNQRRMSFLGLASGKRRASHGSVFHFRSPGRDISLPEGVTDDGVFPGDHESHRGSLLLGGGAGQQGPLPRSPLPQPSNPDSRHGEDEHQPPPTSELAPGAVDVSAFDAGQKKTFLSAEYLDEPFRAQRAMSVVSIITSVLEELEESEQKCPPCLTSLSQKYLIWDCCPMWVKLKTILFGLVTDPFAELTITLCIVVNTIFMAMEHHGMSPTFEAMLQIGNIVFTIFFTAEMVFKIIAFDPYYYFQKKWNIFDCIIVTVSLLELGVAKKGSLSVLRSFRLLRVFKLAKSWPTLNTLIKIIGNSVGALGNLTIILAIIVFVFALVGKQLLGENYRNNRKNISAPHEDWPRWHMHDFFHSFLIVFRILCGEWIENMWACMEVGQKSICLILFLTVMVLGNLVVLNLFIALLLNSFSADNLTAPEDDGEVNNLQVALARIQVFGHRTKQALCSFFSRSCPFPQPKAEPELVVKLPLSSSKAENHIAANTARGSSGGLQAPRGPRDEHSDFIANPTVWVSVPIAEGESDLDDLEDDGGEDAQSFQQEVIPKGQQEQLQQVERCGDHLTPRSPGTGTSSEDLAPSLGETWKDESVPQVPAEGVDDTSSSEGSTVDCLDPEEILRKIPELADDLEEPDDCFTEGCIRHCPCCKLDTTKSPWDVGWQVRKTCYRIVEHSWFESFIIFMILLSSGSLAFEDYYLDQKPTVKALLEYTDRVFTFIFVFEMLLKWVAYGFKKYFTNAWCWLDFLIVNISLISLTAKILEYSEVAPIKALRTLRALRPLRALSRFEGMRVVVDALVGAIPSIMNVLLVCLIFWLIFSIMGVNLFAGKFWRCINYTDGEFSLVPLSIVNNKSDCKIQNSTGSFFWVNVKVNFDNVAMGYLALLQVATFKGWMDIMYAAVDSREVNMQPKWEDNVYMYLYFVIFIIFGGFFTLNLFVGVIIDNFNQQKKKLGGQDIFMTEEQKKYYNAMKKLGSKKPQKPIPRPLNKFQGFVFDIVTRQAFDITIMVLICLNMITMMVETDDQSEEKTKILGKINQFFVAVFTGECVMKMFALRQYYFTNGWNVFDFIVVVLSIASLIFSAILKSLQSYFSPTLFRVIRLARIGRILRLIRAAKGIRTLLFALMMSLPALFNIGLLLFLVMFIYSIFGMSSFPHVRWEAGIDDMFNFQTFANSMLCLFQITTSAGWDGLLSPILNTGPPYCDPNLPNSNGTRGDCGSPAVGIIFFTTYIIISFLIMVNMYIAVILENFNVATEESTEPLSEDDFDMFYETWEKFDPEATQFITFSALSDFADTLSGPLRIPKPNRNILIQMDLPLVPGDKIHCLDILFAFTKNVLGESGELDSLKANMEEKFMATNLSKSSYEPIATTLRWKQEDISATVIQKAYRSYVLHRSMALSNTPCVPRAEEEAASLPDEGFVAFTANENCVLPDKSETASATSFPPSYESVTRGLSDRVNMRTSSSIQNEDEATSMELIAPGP
T1 sequence (Q9NY72 23-215 partner): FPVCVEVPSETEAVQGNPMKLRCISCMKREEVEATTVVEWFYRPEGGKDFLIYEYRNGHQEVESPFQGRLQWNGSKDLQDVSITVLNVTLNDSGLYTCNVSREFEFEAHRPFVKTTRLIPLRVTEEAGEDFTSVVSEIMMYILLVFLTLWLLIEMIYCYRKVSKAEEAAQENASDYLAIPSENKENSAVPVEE
Kind of experiment: Compound Profiling Human NaV1.8/β3 Cell Line—SyncroPatch384PE Assay (automated patch clamp, stably transfected CHO cells). The note with it: Nav1.8/b3 CHO cells. Type of experiment: cell-based. On the technique in general: In patch-clamp work, channel activity is measured electrically.

[1] abbreviates: P1 (IC50, resting state block), P1 measurement, resting state block, holding potential −120 mV, first set of compounds.
[2] abbreviates: P2 (IC50, inactivated state block), P2 measurement, inactivated state block, inactivation step −35 mV 10 sec, first set of compounds.
[3] abbreviates: P1 (IC50, resting state block), P1 measurement, resting state block, holding potential −120 mV, third set of compounds.
Where [4] appears, read: P2 (IC50, inactivated state block), P2 measurement, inactivated state block, inactivation step −35 mV 10 sec, third set of compounds.
Where [5] appears, read: P1 (IC50, resting state block), P1 measurement, resting state block, holding potential −120 mV, second set of compounds.
Where [6] appears, read: P2 (IC50, inactivated state block), P2 measurement, inactivated state block, inactivation step −35 mV 10 sec, second set of compounds.
[7] abbreviates: P1 (IC50, resting state block), P1 measurement, resting state block, holding potential −120 mV, fourth set of compounds.
The mark [8] stands for this setting: P2 (IC50, inactivated state block), P2 measurement, inactivated state block, inactivation step −35 mV 10 sec, fourth set of compounds.

Take `Cc1nc(F)ccc1Oc1cc(C(F)(F)F)c(Cl)cc1C(=O)Nc1ccnc([S@@](C)(=N)=O)c1` (single isomer, unassigned) [Example 5A]: the pIC50 runs as follows: under setting [1], 7.30 to 8.30; under setting [2], 7.30 to 8.30.

For `Cc1nc(F)ccc1Oc1cc(C(F)(F)F)c(Cl)cc1C(=O)Nc1ccnc([S@](C)(=N)=O)c1` (single isomer, unassigned) [Example 6A], the negative-log IC50 (pIC50) reads like this: under setting [1], over 8.30; under setting [2], over 8.30.

For the compound `Cc1nc(F)ccc1Oc1ncc(C(F)(F)F)c(C)c1C(=O)Nc1ccnc([S@@](C)(=N)=O)c1` (single isomer, unassigned) [Example 10C], the pIC50 under setting [3] was 7.30 to 8.30 and the pIC50 under setting [4] is 7.30 to 8.30.

In the case of `Cc1nc(F)ccc1Oc1ncc(C(F)(F)F)c(C)c1C(=O)Nc1ccnc([S@](C)(=N)=O)c1` (single isomer, unassigned) [Example 11C], the pIC50 under setting [3] was 7.30 to 8.30 and the pIC50 under setting [4] was 7.30 to 8.30.

On to `Cc1nc(F)ccc1Oc1ncc(C(F)(F)F)c(C)c1C(=O)Nc1ccc(F)c([S@@](C)(=N)=O)c1` (single isomer, unassigned) [Example 14C], for which the pIC50 under setting [3] is 7.30 to 8.30 and the pIC50 under setting [4] was 7.30 to 8.30.

`Cc1nc(F)ccc1Oc1ncc(C(F)(F)F)c(C)c1C(=O)Nc1ccc(F)c([S@](C)(=N)=O)c1` (single isomer, unassigned) [Example 15C] had a negative-log IC50 (pIC50) under setting [3] of 7.30 to 8.30 and a pIC50 under setting [4] of 7.30 to 8.30.

For `Cc1nc(F)ccc1Oc1cc(C(F)(F)F)c(Cl)cc1C(=O)Nc1cccc([S@](C)(=N)=O)c1` [Example 1A, (R)-5-chloro-2-((6-fluoro-2-methylpyridin-3-yl)oxy)-N-(3-(S-methylsulfonimidoyl)phenyl)-4-(trifluoromethyl)benzamide], the pIC50 reads like this: under setting [1], over 8.30; under setting [2], over 8.30.

With `Cc1nc(F)ccc1Oc1cc(C(F)(F)F)c(Cl)cc1C(=O)Nc1cccc([S@@](C)(=O)=NC(=O)[C@@H](C)O)c1` [Example 1B, 5-chloro-2-((6-fluoro-2-methylpyridin-3-yl)oxy)-N-(3-((R)—N—((R)-2-hydroxypropanoyl)-S-methylsulfonimidoyl)phenyl)-4-(trifluoromethyl)benzamide], the pIC50 by setting is: under setting [5], over 8.30; under setting [6], over 8.30.

Turning to `COc1cc(C#N)ccc1Oc1ncc(-c2cnn(C)c2)c(C)c1C(=O)Nc1cccc([S@](C)(=N)=O)c1` [Example 1C, (R)-2-(4-cyano-2-methoxyphenoxy)-4-methyl-5-(1-methyl-1H-pyrazol-4-yl)-N-(3-(S-methylsulfonimidoyl)phenyl)nicotinamide], the pIC50 is, setting by setting: under setting [3], 7.00 to 7.30; under setting [4], 7.00 to 7.30.

Turning to `CNCC(=O)N=[S@](C)(=O)c1cccc(NC(=O)c2c(Oc3ccc(F)nc3C)ncc(C(F)(F)F)c2C)c1` [Example 1D, (R)-2-((6-fluoro-2-methylpyridin-3-yl)oxy)-4-methyl-N-(3-(S-methyl-N-(methylglycyl)sulfonimidoyl)phenyl)-5-(trifluoromethyl)nicotinamide], the negative logarithm of the IC50 (pIC50) reads like this: under setting [7], over 8.30; under setting [8], over 8.30.

`Cc1nc(F)ccc1Oc1cc(C(F)(F)F)ccc1C(=O)Nc1cccc([S@](C)(=N)=O)c1` [Example 2A, (R)-2-((6-fluoro-2-methylpyridin-3-yl)oxy)-N-(3-(S-methylsulfonimidoyl)phenyl)-4-(trifluoromethyl)benzamide]: the pIC50 is 7.30 to 8.30 under setting [1] and 7.30 to 8.30 under setting [2].

`Cc1nc(F)ccc1Oc1cc(C(F)(F)F)c(Cl)cc1C(=O)Nc1cccc([S@@](C)(=O)=NC(=O)CO)c1` [Example 2B, (R)-5-chloro-2-((6-fluoro-2-methylpyridin-3-yl)oxy)-N-(3-(N-(2-hydroxyacetyl)-S-methylsulfonimidoyl)phenyl)-4-(trifluoromethyl)benzamide] gave a pIC50 under setting [5] of over 8.30 and a pIC50 under setting [6] of over 8.30.

Turning to `Cc1nc(F)ccc1Oc1ncc(-c2ccc(C(F)F)cc2)c(C)c1C(=O)Nc1cccc([S@](C)(=N)=O)c1` [Example 2C, (R)-5-(4-(difluoromethyl)phenyl)-2-((6-fluoro-2-methylpyridin-3-yl)oxy)-4-methyl-N-(3-(S-methylsulfonimidoyl)phenyl)nicotinamide], the pIC50 is 7.30 to 8.30 under setting [3] and 7.30 to 8.30 under setting [4].

Regarding `Cc1nc(F)ccc1Oc1ncc(C(F)(F)F)c(C)c1C(=O)Nc1cccc([S@@](C)(=O)=NC(=O)CN)c1` [Example 2D, (R)-2-((6-fluoro-2-methylpyridin-3-yl)oxy)-N-(3-(N-glycyl-S-methylsulfonimidoyl)phenyl)-4-methyl-5-(trifluoromethyl)nicotinamide], the negative logarithm of the IC50 (pIC50) was over 8.30 under setting [7] and over 8.30 under setting [8].

`Cc1nc(F)ccc1Oc1ccc(C(F)(F)F)c(C)c1C(=O)Nc1cccc([S@](C)(=N)=O)c1` [Example 3A, (R)-6-((6-fluoro-2-methylpyridin-3-yl)oxy)-2-methyl-N-(3-(S-methylsulfonimidoyl)phenyl)-3-(trifluoromethyl)benzamide]: the pIC50 by setting is: under setting [1], over 8.30; under setting [2], over 8.30.

Take `Cc1nc(F)ccc1Oc1cc(C(F)(F)F)c(Cl)cc1C(=O)Nc1cccc([S@@](C)(=O)=NC(=O)[C@H](C)O)c1` [Example 3B, 5-chloro-2-((6-fluoro-2-methylpyridin-3-yl)oxy)-N-(3-((R)—N—((S)-2-hydroxypropanoyl)-S-methylsulfonimidoyl)phenyl)-4-(trifluoromethyl)benzamide]: the pIC50 reads like this: under setting [5], over 8.30; under setting [6], over 8.30.

`Cc1nc(F)ccc1Oc1ncc(-c2ccc(C#N)cc2)c(C)c1C(=O)Nc1cccc([S@](C)(=N)=O)c1` [Example 3C, (R)-5-(4-cyanophenyl)-2-((6-fluoro-2-methylpyridin-3-yl)oxy)-4-methyl-N-(3-(S-methylsulfonimidoyl)phenyl)nicotinamide] had a pIC50 under setting [3] of 7.30 to 8.30 and a pIC50 under setting [4] of 7.30 to 8.30.

On to `CC(=O)N=[S@](C)(=O)c1cccc(NC(=O)c2c(Oc3ccc(F)nc3C)ncc(C(F)(F)F)c2C)c1` [Example 3D, (R)—N-(3-(N-acetyl-S-methylsulfonimidoyl)phenyl)-2-((6-fluoro-2-methylpyridin-3-yl)oxy)-4-methyl-5-(trifluoromethyl)nicotinamide], for which the pIC50 is over 8.30 under setting [7] and over 8.30 under setting [8].

`Cc1nc(F)ccc1Oc1ccc(C(F)(F)F)c(F)c1C(=O)Nc1cccc([S@](C)(=N)=O)c1` [Example 4A, (R)-2-fluoro-6-((6-fluoro-2-methylpyridin-3-yl)oxy)-N-(3-(S-methylsulfonimidoyl)phenyl)-3-(trifluoromethyl)benzamide] gave a pIC50 under setting [1] of over 8.30 and a pIC50 under setting [2] of over 8.30.

On to `Cc1nc(F)ccc1Oc1cc(C(F)(F)F)c(Cl)cc1C(=O)Nc1cccc([S@@](C)(=O)=NC(=O)CN)c1` [Example 4B, (R)-5-chloro-2-((6-fluoro-2-methylpyridin-3-yl)oxy)-N-(3-(N-glycyl-S-methylsulfonimidoyl)phenyl)-4-(trifluoromethyl)benzamide], for which the pIC50 by setting is: under setting [5], over 8.30; under setting [6], over 8.30.

In the case of `Cc1nc(F)ccc1Oc1ncc(-c2ccc3c(c2)OCCO3)c(C)c1C(=O)Nc1cccc([S@](C)(=N)=O)c1` [Example 4C, (R)-5-(2,3-dihydrobenzo[b][1,4]dioxin-6-yl)-2-((6-fluoro-2-methylpyridin-3-yl)oxy)-4-methyl-N-(3-(S-methylsulfonimidoyl)phenyl)nicotinamide], the negative-log IC50 (pIC50) is, setting by setting: under setting [3], 7.30 to 8.30; under setting [4], 7.30 to 8.30.

Regarding `Cc1nc(F)ccc1Oc1ncc(C(F)(F)F)c(C)c1C(=O)Nc1cccc([S@@](C)(=O)=NC(=O)C2CNC2)c1` [Example 4D, (R)—N-(3-(N-(azetidine-3-carbonyl)-S-methylsulfonimidoyl)phenyl)-2-((6-fluoro-2-methylpyridin-3-yl)oxy)-4-methyl-5-(trifluoromethyl)nicotinamide], the pIC50 reads like this: under setting [7], over 8.30; under setting [8], over 8.30.

As to `Cc1nc(F)ccc1Oc1cc(C(F)(F)F)c(Cl)cc1C(=O)Nc1cccc([S@@](C)(=O)=NC(=O)[C@@H](C)N)c1` [Example 5B, N-(3-((R)—N-(D-alanyl)-S-methylsulfonimidoyl)phenyl)-5-chloro-2-((6-fluoro-2-methylpyridin-3-yl)oxy)-4-(trifluoromethyl)benzamide], the pIC50 was over 8.30 under setting [5] and over 8.30 under setting [6].

In the case of `COc1cc(C#N)ccc1Oc1ncc(C(F)(F)F)c(C)c1C(=O)Nc1cccc([S@](C)(=N)=O)c1` [Example 5C, (R)-2-(4-cyano-2-methoxyphenoxy)-4-methyl-N-(3-(S-methylsulfonimidoyl)phenyl)-5-(trifluoromethyl)nicotinamide], the pIC50 is over 8.30 under setting [3] and over 8.30 under setting [4].

On to `Cc1nc(F)ccc1Oc1ncc(C(F)(F)F)c(C)c1C(=O)Nc1cccc([S@@](C)(=O)=NC(=O)C2(N)CC2)c1` [Example 5D, (R)—N-(3-(N-(1-aminocyclopropane-1-carbonyl)-S-methylsulfonimidoyl)phenyl)-2-((6-fluoro-2-methylpyridin-3-yl)oxy)-4-methyl-5-(trifluoromethyl)nicotinamide], for which the pIC50 by setting is: under setting [7], over 8.30; under setting [8], over 8.30.
